Results from patent US8445491B2, “Wnt protein signalling inhibitors” (The Board of Regents of the University of Texas System, priority 2008, dated 2013).
pEC50: −log10 of the molar value.

Assays:
Wnt/β-catenin pathway [1] = assay: luciferase-based reporter assay (SuperTopFlash) measuring Wnt/β-catenin-dependent transcriptional response, L-Wnt-STF cells; type: cell-based; settings: Mus musculus; Table 1; luciferase reporter of Wnt/β-catenin-dependent transcriptional response
Procedure: Tables 1 and 2 provides further examples of such compounds, as well as their activities as determined by a luciferase-based reporter assay that measures Wnt/β-catenin-dependent transcriptional response.
For the “primary screen” and “dose-dependent test,” ˜5,000 L-Wnt-STF cells were seeded into each well of a white opaque 384 well plate and individual compounds from the UTSW chemical library added 24 hrs later to each well at a final concentration of 2.5 μM (primary screen) or otherwise indicated concentrations. Luciferase activities were measured 24 hrs later. To identify FL inhibitors and compounds that blocked protein secretion, L-cells were transiently transfected with CMV-FL and CMV-GL constructs and immediately incubated with compounds. Culture medium and cell lysates were analyzed for GL and FL activities, respectively, after 24 hrs. For the “exogenous Wnt test,” Wnt3A-containing conditioned medium, prepared following the protocol provided ATCC, was applied to HEK293 cells transiently transfected with STF and control reporters. For Hedgehog and Notch tests, NIH-3T3 cells or L-cells, respectively, were transiently transfected with indicated reporter constructs and immediately incubated with compounds. Luciferase activities were measured 24 hrs later. The “Wnt secretion test” was performed in L-cells transiently transfected with the Wnt-GL expression construct and immediately incubated with compounds. Culture medium and cellular lysate were analyzed 48 hrs later for GL activity. Assays used to calculate IC50's for compounds were performed as before in L-Wnt-STF cells.
A brief overview of the screen is as follows: mouse L-cells that stably harbor a well-characterized Wnt/β-catenin pathway-responsive firefly luciferase (FL) reporter plasmid (SuperTopFlash or STF), a control reporter, and an expression construct encoding the Wnt protein, Wnt3A, were exposed to individual compounds for two days prior to measurement of reporter activities. Chemicals that altered FL but not control reporter activity were selected for further testing (FIG. 1; FIG. 8). The screening strategy allows for identification of compounds that either potentially increase or decrease Wnt/β-catenin pathway activity.

[2] = test system: caudal fin regeneration in zebrafish; assay: caudal fin regeneration assay in zebrafish; type: in vivo; settings: for inhibition of fin regeneration / caudal fin regeneration after mechanical resection: zebrafish; for inhibition of fin regeneration: FIG. 25, concentration not given; for caudal fin regeneration after mechanical resection: compound in water 10 μM, 4 days
Procedure: FIG. 25. […] Arrows indicate the points of resection.
(§1) 6 month-old zebrafish were incubated 8 or 14 days at 28.5° C. in aquarium water supplemented with 10 μM IWR or in 0.1% DMSO as a control. Fish were fed standard diet, and solutions were changed daily. At the end of the exposure, zebrafish were incubated in 1 mM BrdU in aquarium water for 2 hrs at room temperature, then washed several times in aquarium water, anesthetized with 0.1% Tricaine, and fixed in 4% paraformaldehyde for 48 hrs at 4° C. The intestine was dissected out, dehydrated, paraffin embedded and sectioned at […] intervals. Sections were stained with Hematoxylin and Eosin or processed for BrdU immunohistochemistry as described (Shepard et al., 2005). Sections from 8 animals each from IWR and DMSO groups were independently scored by four blinded observers. The total number of intestinal folds and total number of BrdU-positive nuclei in the mid and distal sections of the intestine were counted from each section. For caudal fin regeneration assays, zebrafish, 3-6 months of age, were anaesthetized in 0.2% Tricaine and half of the fin was resected using a razor blade to remove Amputees were reared at 31° C. in tanks containing either 300 ml of water with DMSO or IWR (10 μM). Water and compounds were replenished daily for a total assay period of 4 days.

[3] = test system: lung cancer and colorectal cancer cells; assay: cancer cell growth study (Cell Titer Glo); type: cell-based; settings: 6 days
Procedure: FIGS. 7A-D. Chemical inhibition of Wnt-mediated cellular responses in cancer. FIG. 7A. Growth-inhibitory effects of IWR and IWP compounds on cancerous cells. Cells derived from either lung or colon cancer, with known molecular changes that result in aberrant Wnt pathway response, were treated with increasing concentrations of either IWR-4 or IWP-1 for 6 days with medium and compounds replenished daily. Cell viability was measured using Cell-Titer Glo assays. FIG. 7B. Biochemical changes of Wnt pathway components in cancerous cells treated with either IWR or IWP compounds. Lysates from H460, or DLD-1 cells were treated with IWR or IWP and Western blotted for either Dvl2, Axin2, Axin1, or Actin. Whereas both cell lines express […], Axin2 expression is absent in H460 cells. FIG. 7C. Genetic evidence for non-β-catenin dependent Wnt-mediated signalling in cancerous cells. […]
In experiments involving IWR and IWP treatments, cancer cells were seeded into a 24 well format (2.5K cells/well) in the presence of the noted Wnt pathway inhibitors (0.5% DMSO final) Media and compound changed every 24 hours for 5 days. On day 6, ATP levels were quantitated via cell titer glo assay (Promega). […] ATP levels were measured 120 hrs later via Cell Titer Glo assay (Promega).

Wnt3A = Wnt3A phase separation (lipidation) assay in HEK 293 cells; type: cell-based, human; settings: detergent solubility fractionation assay
Procedure: Biochemical studies involving L-Wnt-STF or DLD-1 cells were performed in either 48- or 6-well format with IWR (10 μM) or IWP (5 μM) compounds and/or cycloheximide (100 μM) in a 48 hr assay period. Targeting of APC using RNAi in L-cells was achieved by transfecting cells with SMARTPool APC siRNAs (50 nM; Dharmacon). E-cadherin depletion studies were performed at 4° C. using DLD-1 cells lysed in PBS/1% NP-40/protease inhibitors. For Wnt3A phase separation assays, murine Porcupine (C isoform) and human Wnt3A-myc were transfected into HEK 293 cells (6 well format, 400K cells/well) as appropriate using Effectene transfection reagent (QIAGEN). After 48 hrs of incubation, cells were lysed for 15 min, RT with PL buffer (distilled water, 10 mM tris-HCl, 150 mM NaCl)/1% TritionX-114. Lysate was briefly chilled on ice, pelleted for 10 min 4° C., and the supernatant combined with an equal volume of PL buffer/3.5% TX-114. Solutions were rotated for 15 min at 4° C., placed at 37° C. for 5 mM followed by an additional centrifugation for 5 mM at 2000 g, RT. Distinct phases were collected and combined with PL buffer to a total volume of 1 mL Samples were chilled on ice, ConA sepharose (GE Healthcare) added, and samples rotated for 2 hrs at 4° C. Beads washed 2× with PL buffer, and a Western blot performed with eluted proteins using an anti-c-myc antibody. […]

[4] = test system: Wnt/β-catenin pathway response induced by Wnt1, Wnt2, or Wnt3a; assay: STF reporter, pathway activity induced by Wnt1, Wnt2 or Wnt3a; type: cell-based; settings: FL normalized to RL
Procedure: FIGS. 9A-C. […] FIG. 9A. Summary of results relating to IWR and IWP compounds from the screening process. Wnt pathway tests were performed in either cells responding to autonomously-produced Wnt protein (L-Wnt-STF cells) or exogenously provided Wnt in conditioned medium (HEK293 cells). FIG. 9B. […] Left: schematic of Wnt-Gaussia luciferase (Wnt-GL) fusion protein used to monitor levels of secreted Wnt protein in the cell medium. Right: levels of Wnt-GL but not GL secreted from cells treated with IWP compounds are decreased as compared to cells treated with carrier. The Wnt-GL protein elicits levels of Wnt/β-catenin pathway response similar to that of Wnt3a protein (data not shown). FIG. 9C. […] FL activity was normalized to control RL activity as before.

[5] = test system: zebrafish gastrointestinal (GI) tract; assay: homeostatic renewal of the zebrafish GI tract (BrdU incorporation, histology); type: in vivo
Procedure: as §1

Wnt/β-catenin pathway [6] = assay: Western blot of Wnt/β-catenin pathway markers (LRP6 and Dvl2 phosphorylation, β-catenin accumulation) in L-Wnt-STF cells; type: cell-based, mouse; settings: L-Wnt cells
Source text: FIG. 3. Biochemical evidence for Wnt/β-catenin pathway inhibition by IWR and IWP compounds. […] Cellular lysates were subjected to Western blot analysis to determine levels of LRP6 and Dvl2 phosphorylation, and β-catenin accumulation, all biochemical events associated with Wnt/β-catenin pathway activity. Predictably, IWPs blocked all three biochemical events, whereas IWRs appear to block β-catenin accumulation without affecting LRP6 and Dv12 phosphorylation. Kif3A and tubulin serve as loading controls.
(§2) Biochemical studies involving L-Wnt-STF or DLD-1 cells were performed in either 48- or 6-well format with IWR (10 μM) or IWP (5 μM) compounds and/or cycloheximide (100 μM) in a 48 hr assay period. Targeting of APC using RNAi in L-cells was achieved by transfecting cells with SMARTPool APC siRNAs (50 nM; Dharmacon). E-cadherin depletion studies were performed at 4° C. using DLD-1 cells lysed in PBS/1% NP-40/protease inhibitors. For Wnt3A phase separation assays, murine Porcupine (C isoform) and human Wnt3A-myc were transfected into HEK 293 cells (6 well format, 400K cells/well) as appropriate using Effectene transfection reagent (QIAGEN). After 48 hrs of incubation, cells were lysed for 15 min, RT with PL buffer (distilled water, 10 mM tris-HCl, 150 mM NaCl)/1% TritionX-114. […]

β-catenin = β-catenin accumulation in L-cells treated with APC siRNAs; type: cell-based; settings: mouse L-cells treated with APC siRNAs
Source text: FIGS. 5A-H. Stabilization of the Axin2 destruction complex by IWR compounds. FIG. 5A. IWR compounds block β-catenin accumulation induced by loss of APC tumor suppressor. […] FIG. 5B. IWRs block aberrant Wnt/β-catenin pathway activity in the colorectal cancer (CRC) cells. Aberrant Wnt/β-catenin pathway activity in DLD-1 cells, CRC cells which harbor a loss-of-function mutation in APC, is abrogated by IWR compounds. Pathway activity was monitored using the STF reporter and normalized to RL control reporter as before. FIG. 5C. IWRs induce accumulation of Axin2 protein. Western blot analysis of proteins involved in regulating β-catenin levels in DLD-1 cells reveal accumulation of Axin2 protein in cells treated with IWR compounds with little change in expression levels of other pathway components. Note that the APC protein is truncated in these cells. FIG. 5D. Levels of β-catenin in CRC cells available for Wnt response are decreased in the presence of IWR compounds. […] FIG. 5E. IWR stabilizes Axin2 protein. Rapid destruction of Axin2 protein is apparent in DLD-1 cells treated with the protein synthesis inhibitor cycloheximide. […] FIG. 5F. […] FIG. 5G. […] FIG. 5H. A proposed model of IWR action. Addition of IWR to cells induces stabilization of Axin2 protein with consequential increase in β-catenin destruction. […]

[7] = test system: Axin2 and β-catenin in DLD-1 cells; assay: biochemical studies of destruction complex components in DLD-1 cells (Western blot, E-cadherin depletion, cycloheximide); type: cell-based
Source text: FIGS. 5A-H. Stabilization of the Axin2 destruction complex by IWR compounds. FIG. 5A. IWR compounds block β-catenin accumulation induced by loss of APC tumor suppressor. […] FIG. 5B. IWRs block aberrant Wnt/β-catenin pathway activity in the colorectal cancer (CRC) cells. Aberrant Wnt/β-catenin pathway activity in DLD-1 cells, CRC cells which harbor a loss-of-function mutation in APC, is abrogated by IWR compounds. Pathway activity was monitored using the STF reporter and normalized to RL control reporter as before. FIG. 5C. IWRs induce accumulation of Axin2 protein. Western blot analysis of proteins involved in regulating β-catenin levels in DLD-1 cells reveal accumulation of Axin2 protein in cells treated with IWR compounds with little change in expression levels of other pathway components. Note that the APC protein is truncated in these cells. FIG. 5D. Levels of β-catenin in CRC cells available for Wnt response are decreased in the presence of IWR compounds. […] FIG. 5E. IWR stabilizes Axin2 protein. Rapid destruction of Axin2 protein is apparent in DLD-1 cells treated with the protein synthesis inhibitor cycloheximide. […] FIG. 5F. […] FIG. 5G. […] FIG. 5H. A proposed model of IWR action. Addition of IWR to cells induces stabilization of Axin2 protein with consequential increase in β-catenin destruction.
as §2, with “Targeting” for “Biochemical studies involving L-Wnt-STF or DLD-1 cells were performed in either 48- or 6-well format with IWR (10 μM) or IWP (5 μM) compounds and/or cycloheximide (100 μM) in a 48 hr assay period. Targeting”, “TritionX-114. Lysate was briefly chilled on ice, pelleted for 10 min 4° C., and the supernatant combined with an equal volume of PL buffer/3.5% TX-114.” for “TritionX-114.”

O=C(Nc1ccc(F)cc1)c1ccc(N2C(=O)[C@@H]3[C@@H]4C=CC(C4)[C@@H]3C2=O)cc1 [Compound 13]
pEC50 (Wnt/β-catenin pathway [1]): 5.40 | inhibition of fin regeneration [2]: partial inhibition

O=C(Nc1ccc(F)cc1F)c1ccc(N2C(=O)[C@@H]3[C@@H]4C=CC(C4)[C@@H]3C2=O)cc1 [Compound 17]
pEC50 (Wnt/β-catenin pathway [1]): 5.05 | inhibition of fin regeneration [2]: only retarded the growth of the tail fin

COc1ccc(-n2nc(C(=O)NCC(=O)Nc3nc4ccc(OC)cc4s3)c3ccccc3c2=O)cc1 [IWP-1]
inhibition of cancerous cell growth [3]: consistently more effective than IWR-4

Cc1ccc2nc(NC(=O)CSc3nc4c(c(=O)n3-c3ccccc3)SCC4)sc2c1 [IWP-2]
caudal fin regeneration after mechanical resection [2]: failed to do so | levels of lipidated Wnt3A (Wnt3A): decreased | pathway activity induced by Wnt1, Wnt2, or Wnt3a [4]: decreased

O=C(Nc1cccc2cccnc12)c1ccc(N2C(=O)[C@@H]3[C@H](C2=O)[C@@H]2C=C[C@H]3C2)cc1 [IWR-1]
fin regeneration after removal of the chemical ([2]; zebrafish bred 7 d in water containing compound, then removal): able to regenerate tissue to nearly normal levels after chemical removal | caudal fin regeneration after mechanical resection [2]: suppressed fin regeneration | adverse signs in treated fish ([5]; zebrafish treated for periods longer than 4 days): lethargy and decreased appetite | BrdU-labeled cells at the base of intestinal folds ([5]; zebrafish, 10 μM in water, 8 days): decreased number | accumulation of β-catenin (Wnt/β-catenin pathway [6]): inhibit accumulation of β-catenin | β-catenin accumulation induced by loss of APC (β-catenin): can be blocked | levels of β-catenin not bound to E-cadherin ([7]; DLD-1 cells): decreased | Axin2 protein turn-over ([7]; DLD-1 cells with cycloheximide): little turn-over of Axin2 | expression of Wnt/β-catenin target gene Axin2 ([7]; DLD-1 cells, exposure for 2 h): decrease in the expression of Axing | pathway activity induced by Wnt1, Wnt2, or Wnt3a [4]: decreased
